{"source": "patent US20030181426A1", "about": "“Compositions and methods for treating pain using cyclooxygenase-1 inhibitors” (priority 2002, published 2003)", "key": {"PGE2 [1]": {"system": "PGE2", "test": "CSF PGE2 concentrations in conscious dogs after i.t. ketorolac", "assay_type": "in vivo", "settings": "within 30 min of injection"}, "PGE2 [2]": {"system": "PGE2", "test": "PGE2 concentration in cerebrospinal fluid of volunteers", "assay_type": "in vivo, humans", "settings": "for Pre-injection PGE2: CSF before injection; for Post-injection PGE2: CSF 60 min after injection"}, "tactile allodynia [3]": {"system": "tactile allodynia", "test": "L5 and L6 spinal nerve ligation (SNL) tactile allodynia, lidocaine and ketorolac", "assay_type": "in vivo, male Sprague-Dawley rats"}, "[4]": {"system": "locomotor activity after laparotomy", "test": "Post-laparotomy locomotor activity model", "assay_type": "in vivo, rats"}, "[5]": {"test": "Phase I safety trial of intrathecal ketorolac in healthy volunteers", "assay_type": "in vivo, humans"}, "tactile allodynia [6]": {"system": "tactile allodynia", "test": "Partial sciatic nerve ligation (PSNL) tactile allodynia, i.t. COX inhibitors", "assay_type": "in vivo, Sprague-Dawley rats", "text": "A Sprague-Dawley rats (Harlan Industries, Indianapolis, Ind., USA), weighing 200-250 g, were used in this study. All animal surgical procedures were in conformity with the Wake Forest University guidelines on the ethical use of animals and studies were approved by the Animal Care and Use Committee. Animals were implanted with intrathecal catheters according to the method described previously. (Yaksh TL, 1976). Briefly, under halothane anesthesia (2-4% in oxygen/air), animals were placed prone in a stereotaxic frame and a small incision was made at the back of the neck. A small puncture was made in the atlanto-occipital membrane of the cistema magna and a polyethylene catheter (PE-10, 7.5 cm) was inserted so that the caudal tip reached the lumbar enlargement of the spinal cord. The rostral end of the catheter was exteriorized at the top of the head and the wound was closed with sutures. Animals were allowed 4-5 days to recover from the surgery and those displaying signs of motor dysfunction (fore limb or hind limb paralysis) were excluded from the study. Rats were anesthetized with 2-4% halothane in oxygen-air. For partial […] nerve ligation (PSNL), the left sciatic nerve was exposed at the high thigh level and one-third to one-half of the nerve was ligated with silk suture (size 6) as previously described (Shir et al., 1991). Animals were maintained after surgery with ad libitum food and water on a 12-h light/dark cycle. All rats were allowed to recover for 4 weeks after PSNL. By then, tactile allodynia was well established in the ipsilateral hindpaw."}, "[7]": {"settings": "intrathecal ketorolac 50 μg, 1 week after 200 μg intrathecal lidocaine"}, "[8]": {"settings": "intrathecal ketorolac 50 μg, 1 week after 300 μg intrathecal lidocaine"}, "[9]": {"settings": "i.t. 50 μg, compared to i.t. saline control"}}}
{"smiles": "O=C(c1ccccc1)c1ccc2n1CCC2C(=O)O", "note": "(stereo not drawn) [ketorolac]", "values": [{"measurement": "reduction of CSF PGE2 concentrations", "setting": "PGE2 [1]", "result": "> 90", "unit": "%"}, {"measurement": "Pre-injection PGE2", "setting": "PGE2 [2]; 0.25 mg dose group", "result": "4.7 ± 0.7", "unit": "pg/mL"}, {"measurement": "Post-injection PGE2", "setting": "PGE2 [2]; 0.25 mg i.t.", "result": "6.0 ± 0.9", "unit": "pg/mL"}, {"measurement": "Pre-injection PGE2", "setting": "PGE2 [2]; 0.50 mg dose group", "result": "5.6 ± 1.9", "unit": "pg/mL"}, {"measurement": "Post-injection PGE2", "setting": "PGE2 [2]; 0.50 mg i.t.", "result": "3.8 ± 0.6", "unit": "pg/mL"}, {"measurement": "Pre-injection PGE2", "setting": "PGE2 [2]; 1.0 mg dose group", "result": "4.1 ± 0.9", "unit": "pg/mL"}, {"measurement": "Post-injection PGE2", "setting": "PGE2 [2]; 1.0 mg i.t.", "result": "8.5 ± 1.7", "unit": "pg/mL"}, {"measurement": "Pre-injection PGE2", "setting": "PGE2 [2]; 2.0 mg dose group", "result": "4.9 ± 0.7", "unit": "pg/mL"}, {"measurement": "Post-injection PGE2", "setting": "PGE2 [2]; 2.0 mg i.t.", "result": "7.5 ± 1.7", "unit": "pg/mL"}, {"measurement": "CSF PGE2 concentration 60 min after ketorolac injection", "setting": "PGE2 [2]; entire study population", "result": "6.1 ± 0.6", "unit": "pg/mL"}, {"measurement": "CSF PGE2 concentration prior to ketorolac injection", "setting": "PGE2 [2]; entire study population", "result": "4.9 ± 0.5", "unit": "pg/mL"}, {"measurement": "effect on CSF PGE2 concentrations", "setting": "PGE2 [2]; entire study population, 60 min after injection", "result": "not affected"}, {"measurement": "tactile allodynia caused by SNL", "setting": "tactile allodynia [3]; intrathecal ketorolac 50 μg alone", "result": "failed to attenuate"}, {"measurement": "antiallodynic effect", "setting": "tactile allodynia [3]; intrathecal ketorolac 50 μg, 1 week after 100 μg intrathecal lidocaine", "result": "failed to exert any antiallodynic effect"}, {"measurement": "duration of reversal of tactile allodynia", "setting": "tactile allodynia [3]; [7]", "result": 4, "unit": "h"}, {"measurement": "tactile allodynia caused by SNL", "setting": "tactile allodynia [3]; [7]", "result": "reversed tactile allodynia"}, {"measurement": "duration of reversal of tactile allodynia", "setting": "tactile allodynia [3]; [8]", "result": 4, "unit": "h"}, {"measurement": "tactile allodynia caused by SNL", "setting": "tactile allodynia [3]; [8]", "result": "reversed tactile allodynia"}, {"measurement": "SNL-induced tactile allodynia", "setting": "tactile allodynia [3]; intrathecal ketorolac 50 μg, 1 week following prior intrathecal ketorolac 50 μg", "result": "failed to alleviate"}, {"measurement": "SNL-induced tactile allodynia", "setting": "tactile allodynia [3]; intrathecal ketorolac 100 μg alone", "result": "failed to alleviate"}, {"measurement": "SNL-induced tactile allodynia", "setting": "tactile allodynia [3]; intrathecal ketorolac 100 μg, 1 week after intrathecal lidocaine", "result": "exhibited the antiallodynic effect"}, {"measurement": "antiallodynic effect", "setting": "tactile allodynia [3]; one day after intrathecal ketorolac, rats previously given 200 and 300 μg lidocaine", "result": "disappeared"}, {"measurement": "ambulatory locomotor activity after laparotomy", "setting": "[4]; [9]", "result": "increased"}, {"measurement": "vertical locomotor activity after laparotomy", "setting": "[4]; [9]", "result": "increased"}, {"measurement": "locomotor activity in the absence of surgery", "setting": "[4]; ketorolac alone", "result": "no effect"}, {"measurement": "effect on morphine's effect on ambulatory activity", "setting": "[4]; systemic ketorolac 5 mg/kg i.p. with morphine", "result": "potentiate morphine's effect"}, {"measurement": "ambulatory activity after laparotomy", "setting": "[4]; systemic, 5 mg/kg i.p.", "result": "failed to affect ambulatory activity"}, {"measurement": "headache", "setting": "[5]; 0.5 mg i.t., one individual, 24 h after injection, resolved the following day", "result": "mild headache"}, {"measurement": "heart rate prior to injection, range", "setting": "[5]; entire group", "result": "52-86 bpm"}, {"measurement": "minimum heart rate at any time after injection, range", "setting": "[5]; entire group", "result": "45-69 bpm"}, {"measurement": "heart rate prior to injection", "setting": "[5]; entire group, mean ± SE", "result": "67±2.1", "unit": "bpm"}, {"measurement": "minimum heart rate at any time after injection", "setting": "[5]; entire group, mean ± SE", "result": "57±1.7", "unit": "bpm"}, {"measurement": "heart rate", "setting": "[5]; for 1 hr following ketorolac, significant within each dose group except 2.0 mg", "result": "decreased"}, {"measurement": "side effects", "setting": "[5]; i.t. 0.25, 0.5, 1, or 2 mg open label dose-escalation, early studies of 14 subjects", "result": "no side effects were observed"}, {"measurement": "blood pressure, oxyhemoglobin saturation, end-tidal CO2", "setting": "[5]; i.t. 0.25-2 mg", "result": "did not affect"}, {"measurement": "deviation of blood pressure, oxyhemoglobin saturation, end-tidal CO2 from pre-injection values", "setting": "[5]; i.t. 0.25-2 mg", "result": "≤ 10", "unit": "%"}, {"measurement": "side effects at long-term follow up", "setting": "[5]; i.t. 0.25-2 mg", "result": "no side effects"}, {"measurement": "subjective neurologic symptoms", "setting": "[5]; i.t. 0.25-2 mg", "result": "no subjective neurologic symptoms in any volunteer"}, {"measurement": "symptomatic bradycardia", "setting": "[5]; i.t. 0.25-2 mg", "result": "In no case"}, {"measurement": "sedation, anxiety, gastrointestinal or genitourinary symptoms, or dizziness", "setting": "[5]; i.t. 0.25-2 mg, at any time", "result": "No volunteer reported"}, {"measurement": "neurologic examination", "setting": "[5]; i.t. 0.25-2 mg, twenty volunteers", "result": "no effect"}, {"measurement": "side effects", "setting": "[5]; i.t., doses up to 1.0 mg", "result": "no side effects"}, {"measurement": "duration of reversal of withdrawal threshold", "setting": "tactile allodynia [6]; 4 weeks after PSNL", "result": 6, "unit": "days"}, {"measurement": "withdrawal threshold, ipsilateral hindpaw", "setting": "tactile allodynia [6]; 4 weeks after PSNL, two hours following injection", "result": "significantly reversed to pre-lesion baseline"}, {"measurement": "withdrawal threshold, ipsilateral hindpaw", "setting": "tactile allodynia [6]; eight days after injection", "result": "returned to the pre-injection level"}]}
